Results from US20110086429A1, “METHODS AND DEVICES FOR DETECTING OZONE AND CARBONYL-CONTAINING COMPOUNDS” (SIGMA-ALDRICH CO., priority 2007, published 2011).
Converted amounts (≈) assume the structure as drawn.

Assay: Solubility in acetonitrile, DMSO and their mixtures
Assay type: physicochemical

Structure (SMILES)	solubility (organic solvent or mixture, acetonitrile, FIG. 3 at 25° C.)	solubility in DMSO (in words) (DMSO)	solubility in acetonitrile (in words) (acetonitrile)
O=Cc1ccncc1 [pyridine-4-aldehyde]	~790 µM (≈ 84.6 µg/mL)		
O=[N+]([O-])c1ccc(NN=Cc2ccncc2)c([N+](=O)[O-])c1 [pyridine-4-aldehyde 2,4-DNPhydrazone, pyridine-4-aldehyde 2,4-dinitrophenylhydrazone]		relatively high concentration	poor solubility
